Reference: patent publication US20220119411A1, “IMMUNOMODULATORS, COMPOSITIONS AND METHODS THEREOF” (BETTA PHARMACEUTICALS CO., LTD, priority 2018, published 2022)

These compounds were tested against T1, PD-1/PD-L1 protein/protein interaction (Homo sapiens, UniProt Q9NZQ7) (assay: PD-1/PD-L1 homogenous time-resolved fluorescence (HTRF) binding assay). Conditions: recombinant human PD-L1 (19-238)-His 10 nM, human PD-1 (25-167)-Fc 3 nM, 25° C., PBS pH 7.4.
T1 construct: Recombinant human PD-L1 protein (19-238) with a His-tag at the C-terminus; purchased AcroBiosystems PD1-H5229 (PD-L1); PD1-H5257 (PD-1)
T1 sequence (Q9NZQ7 19-238): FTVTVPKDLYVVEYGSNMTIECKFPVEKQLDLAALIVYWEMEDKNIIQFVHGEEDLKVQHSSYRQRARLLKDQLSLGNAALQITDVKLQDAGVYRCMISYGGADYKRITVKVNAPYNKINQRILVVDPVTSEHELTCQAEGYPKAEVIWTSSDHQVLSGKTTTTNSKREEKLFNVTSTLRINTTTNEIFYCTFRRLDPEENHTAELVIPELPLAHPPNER
Method: Resolved Fluorescence (HTRF) Binding Assay
The assays were conducted in a standard black 384-well polystyrene plate with a final volume of 20 μL. Inhibitors were first serially diluted in DMSO and then added to the plate wells before the addition of other reaction components. The final concentration of DMSO in the assay was 1%. The assays were carried out at 25° C. in the PBS buffer (pH 7.4) with 0.05% Tween-20 and 0.1% BSA. Recombinant human PD-L1 protein (19-238) with a His-tag at the C-terminus was purchased from AcroBiosy stems (PD1-H5229). Recombinant human PD-1 protein (25-167) with Fc tag at the C-terminus was also purchased from AcroBiosystems (PD1-H5257). PD-L1 and PD-1 proteins were diluted in the assay buffer and 10 μL was added to the plate well. Plates were centrifuged and proteins were preincubated with inhibitors for 40 min. The incubation was followed by the addition of 10 μL of HTRF detection buffer supplemented with Europium cryptate-labeled anti-human IgG (PerkinElmer-AD0212) specific for Fc and anti-His antibody conjugated to SureLight®—Allophycocyanin (APC, PerkinElmer-AD0059H). After centrifugation, the plate was incubated at 25° C. for 60 min. Before reading on a PHERAstar FS plate reader (665 nm/620 nm ratio). Final concentrations in the assay were—3 nM PD1, 10 nM PD-L1, 1 nM europium anti-human IgG and 20 nM anti-His-Allophycocyanin. IC50 determination was performed by fitting the curve of percent control activity versus the log of the inhibitor concentration using the GraphPad Prism 5.0 software.
Data obtained for the Example compounds using the PD-1/PD-L1 homogenous time-resolved fluorescence (HTRF) binding assay described in Example A is provided in Table 2.

Q: How did the IC50 turn out when `O=C(O)CN1CCc2nc(C(=O)N3CCc4c(-c5cccc6c5CCN6CCCN5CCOCC5)cccc43)sc2C1` [Example 6, 2-(2-(1′-(3-morpholinopropyl)-[4,4′-biindoline]-1-carbonyl)-6,7-dihydrothiazolo[5,4-c]pyridin-5(4H)-yl)acetic acid] was run?
A: The IC50 was ≤ 0.025 µM.

Q: `O=C(O)CN1CCc2nc(C(=O)N3CCc4c(-c5cccc(OCCCN6CCOCC6)c5)cccc43)sc2C1` [Example 15, 2-(2-(4-(3-(3-morpholinopropoxy)phenyl)indoline-1-carbonyl)-6,7-dihydrothiazolo[5,4-c]pyridin-5(4H)-yl)acetic acid] was tested. Which IC50 did it give?
A: The IC50 was ≤ 0.025 µM.

Q: How did the IC50 turn out when `Cn1c(C(=O)N2CCc3c(-c4cccc5c4CCN5C(=O)CCN4CCC(O)C4)cccc32)nc2c1CN(CC(=O)O)CC2` (stereo not drawn) [Example 35, 2-(2-(1′-(3-(3-hydroxypyrrolidin-1-yl)propanoyl)-[4,4′-biindoline]-1-carbonyl)-3-methyl-3,4,6,7-tetrahydro-5H-imidazo[4,5-c]pyridin-5-yl)acetic acid] was run?
A: The IC50 was ≤ 0.025 µM.

Q: Which IC50 does the source give for `Cc1ccccc1-c1cccc2c1CCN2C(=O)c1nc2c(s1)CN(CC(=O)O)CC2` [Example 5, 2-(2-(4-(o-tolyl)indoline-1-carbonyl)-6,7-dihydrothiazolo[5,4-c]pyridin-5(4H)-yl)acetic acid] here?
A: The IC50 was 0.025 to 0.1 µM.

Q: How did the IC50 turn out when `Cc1c(NC(=O)c2nc3c(n2C)CCNC3)cccc1-c1cccc2c1CCN2C(=O)c1nc2c(s1)CN(CC(=O)O)CC2` [Example 32, 2-(2-(4-(2-methyl-3-(1-methyl-4,5,6,7-tetrahydro-1H-imidazo[4,5-c]pyridine-2-carboxamido)phenyl)indoline-1-carbonyl)-6,7-dihydrothiazolo[5,4-c]pyridin-5(4H)-yl)acetic acid] was run?
A: Its IC50 is ≤ 0.025 µM.

Q: `Cn1ncc2c(-c3cccc4c3CCN4C(=O)c3nc4c(s3)CN(CC(=O)O)CC4)cccc21` [Example 30, 2-(2-(4-(1-methyl-1H-indazol-4-yl)indoline-1-carbonyl)-6,7-dihydrothiazolo[5,4-c]pyridin-5(4H)-yl)acetic acid] was tested. Which IC50 did it give?
A: The IC50 was ≤ 0.025 µM.
